Experimental data taken from PubChem BioAssay (NCI).
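Test compounds were applied to cells in 96-well plates for 48 hours at 5 doses. TGI: total growth inhibition.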

Columns and labels:
Assay in all cases: NCI tumour cell line growth inhibition, 48 h
SN12C renal = tested on: SN12C renal
EKVX NSCLC = tested on: EKVX NSCLC
NCI-H23 lung = tested on: NCI-H23 lung
OVCAR-8 ovarian = tested on: OVCAR-8 ovarian
A549 NSCLC = tested on: A549 NSCLC
K-562 leukemia = tested on: K-562 leukemia
TK-10 renal = tested on: TK-10 renal
SK-MEL-2 melanoma = tested on: SK-MEL-2 melanoma
HCT-15 colon = tested on: HCT-15 colon
U251 CNS = tested on: U251 CNS
SNB-19 CNS = tested on: SNB-19 CNS
LOX IMVI melanoma = tested on: LOX IMVI melanoma
SK-MEL-5 melanoma = tested on: SK-MEL-5 melanoma
DMS 273 small cell lung = tested on: DMS 273 small cell lung
M14 melanoma = tested on: M14 melanoma
MALME-3M melanoma = tested on: MALME-3M melanoma
DLD-1 colon = tested on: DLD-1 colon
SK-MEL-28 melanoma = tested on: SK-MEL-28 melanoma
SR leukemia = tested on: SR leukemia
ACHN renal = tested on: ACHN renal
NCI-H522 lung = tested on: NCI-H522 lung
OVCAR-3 ovarian = tested on: OVCAR-3 ovarian
HOP-62 NSCLC = tested on: HOP-62 NSCLC
HCT-116 colon = tested on: HCT-116 colon
SF-539 CNS = tested on: SF-539 CNS
LXFL 529 NSCLC = tested on: LXFL 529 NSCLC
CCRF-CEM leukemia = tested on: CCRF-CEM leukemia
SF-268 CNS = tested on: SF-268 CNS
KM12 colon = tested on: KM12 colon
SW-620 colon = tested on: SW-620 colon
A498 renal = tested on: A498 renal
SNB-78 CNS = tested on: SNB-78 CNS
SNB-75 CNS = tested on: SNB-75 CNS
NCI-H460 lung = tested on: NCI-H460 lung
OVCAR-5 ovarian = tested on: OVCAR-5 ovarian
HL-60(TB) leukemia = tested on: HL-60(TB) leukemia
KM20L2 colon = tested on: KM20L2 colon
MOLT-4 leukemia = tested on: MOLT-4 leukemia
M19-MEL melanoma = tested on: M19-MEL melanoma
HOP-18 NSCLC = tested on: HOP-18 NSCLC
UACC-62 melanoma = tested on: UACC-62 melanoma
DMS 114 small cell lung = tested on: DMS 114 small cell lung
IGROV1 ovarian = tested on: IGROV1 ovarian
HT29 colon = tested on: HT29 colon
RXF-631 renal = tested on: RXF-631 renal
SK-OV-3 ovarian = tested on: SK-OV-3 ovarian
HCC-2998 colon = tested on: HCC-2998 colon
COLO 205 colon = tested on: COLO 205 colon
RXF 393 renal = tested on: RXF 393 renal
OVCAR-4 ovarian = tested on: OVCAR-4 ovarian
UO-31 renal = tested on: UO-31 renal
786-0 renal = tested on: 786-0 renal
UACC-257 melanoma = tested on: UACC-257 melanoma
HOP-92 NSCLC = tested on: HOP-92 NSCLC
CAKI-1 renal = tested on: CAKI-1 renal
NCI-H226 lung = tested on: NCI-H226 lung
SF-295 CNS = tested on: SF-295 CNS
XF 498 CNS = tested on: XF 498 CNS
RPMI-8226 leukemia = tested on: RPMI-8226 leukemia

NCCCCCS(=O)(=O)O
TGI (SN12C renal): > 100 µM | TGI (EKVX NSCLC): > 100 µM | TGI (NCI-H23 lung): > 100 µM | TGI (OVCAR-8 ovarian): > 100 µM | TGI (A549 NSCLC): > 100 µM | TGI (K-562 leukemia): > 100 µM | TGI (TK-10 renal): > 100 µM | TGI (SK-MEL-2 melanoma): > 100 µM | TGI (HCT-15 colon): > 100 µM | TGI (U251 CNS): > 100 µM | TGI (SNB-19 CNS): > 100 µM | TGI (LOX IMVI melanoma): > 100 µM | TGI (SK-MEL-5 melanoma): > 100 µM | TGI (DMS 273 small cell lung): > 100 µM | TGI (M14 melanoma): > 100 µM | TGI (MALME-3M melanoma): > 100 µM | TGI (DLD-1 colon): > 100 µM | TGI (SK-MEL-28 melanoma): > 100 µM | TGI (SR leukemia): > 100 µM | TGI (ACHN renal): > 100 µM | TGI (NCI-H522 lung): > 100 µM | TGI (OVCAR-3 ovarian): > 100 µM | TGI (HOP-62 NSCLC): > 100 µM | TGI (HCT-116 colon): > 100 µM | TGI (SF-539 CNS): > 100 µM | TGI (LXFL 529 NSCLC): > 100 µM | TGI (CCRF-CEM leukemia): > 100 µM | TGI (SF-268 CNS): > 100 µM | TGI (KM12 colon): > 100 µM | TGI (SW-620 colon): > 100 µM | TGI (A498 renal): > 100 µM | TGI (SNB-78 CNS): > 100 µM | TGI (SNB-75 CNS): > 100 µM | TGI (NCI-H460 lung): > 100 µM | TGI (OVCAR-5 ovarian): > 100 µM | TGI (HL-60(TB) leukemia): > 100 µM | TGI (KM20L2 colon): > 100 µM | TGI (MOLT-4 leukemia): > 100 µM | TGI (M19-MEL melanoma): > 100 µM | TGI (HOP-18 NSCLC): > 100 µM | TGI (UACC-62 melanoma): > 100 µM | TGI (DMS 114 small cell lung): > 100 µM | TGI (IGROV1 ovarian): > 100 µM | TGI (HT29 colon): > 100 µM | TGI (RXF-631 renal): > 100 µM | TGI (SK-OV-3 ovarian): > 100 µM | TGI (HCC-2998 colon): > 100 µM | TGI (COLO 205 colon): > 100 µM | TGI (RXF 393 renal): > 100 µM | TGI (OVCAR-4 ovarian): > 100 µM | TGI (UO-31 renal): > 100 µM | TGI (786-0 renal): > 100 µM | TGI (UACC-257 melanoma): > 100 µM

OCC(O)C(O)c1nn(-c2ccccc2)c2nc3cc(Cl)c(Cl)cc3nc12 (stereo not given)
TGI (HOP-92 NSCLC): 82.1 µM | TGI (SN12C renal): > 100 µM | TGI (EKVX NSCLC): > 100 µM | TGI (NCI-H23 lung): > 100 µM | TGI (OVCAR-8 ovarian): 69.2 µM | TGI (A549 NSCLC): 57.4 µM | TGI (CAKI-1 renal): 41.5 µM | TGI (NCI-H226 lung): 73.6 µM | TGI (K-562 leukemia): > 100 µM | TGI (TK-10 renal): 48.4 µM | TGI (SK-MEL-2 melanoma): 74.1 µM | TGI (HCT-15 colon): > 100 µM | TGI (U251 CNS): > 100 µM | TGI (SNB-19 CNS): > 100 µM | TGI (LOX IMVI melanoma): 58.1 µM | TGI (SK-MEL-5 melanoma): > 100 µM | TGI (DMS 273 small cell lung): 56.6 µM | TGI (M14 melanoma): > 100 µM | TGI (MALME-3M melanoma): 44.1 µM | TGI (DLD-1 colon): > 100 µM | TGI (SF-295 CNS): > 100 µM | TGI (SK-MEL-28 melanoma): > 100 µM | TGI (XF 498 CNS): > 100 µM | TGI (ACHN renal): 75.6 µM | TGI (NCI-H522 lung): > 100 µM | TGI (OVCAR-3 ovarian): 92.1 µM | TGI (HOP-62 NSCLC): > 100 µM | TGI (HCT-116 colon): 54.4 µM | TGI (SF-539 CNS): 71 µM | TGI (LXFL 529 NSCLC): 70.9 µM | TGI (CCRF-CEM leukemia): > 100 µM | TGI (SF-268 CNS): 80.5 µM | TGI (KM12 colon): 81.2 µM | TGI (SW-620 colon): > 100 µM | TGI (SNB-78 CNS): > 100 µM | TGI (SNB-75 CNS): 52 µM | TGI (NCI-H460 lung): 82.1 µM | TGI (OVCAR-5 ovarian): 58.4 µM | TGI (HL-60(TB) leukemia): 50.9 µM | TGI (KM20L2 colon): 75.8 µM | TGI (MOLT-4 leukemia): > 100 µM | TGI (M19-MEL melanoma): > 100 µM | TGI (HOP-18 NSCLC): > 100 µM | TGI (UACC-62 melanoma): > 100 µM | TGI (DMS 114 small cell lung): 71.4 µM | TGI (IGROV1 ovarian): 90.7 µM | TGI (HT29 colon): 56 µM | TGI (RXF-631 renal): 91.5 µM | TGI (SK-OV-3 ovarian): > 100 µM | TGI (HCC-2998 colon): 86.5 µM | TGI (COLO 205 colon): 86.4 µM | TGI (RXF 393 renal): 47.4 µM | TGI (OVCAR-4 ovarian): 93.5 µM | TGI (UO-31 renal): 63.5 µM | TGI (786-0 renal): 68.4 µM | TGI (UACC-257 melanoma): > 100 µM | TGI (RPMI-8226 leukemia): > 100 µM
